Source: ChEMBL document CHEMBL5465560, “Selectivity Literature for EUbOPEN Chemogenomic Library” (2024)
Residue numbers refer to the chain shown, from its start.

Key:
Details in all cases: at 10 µM
[1] = tested on: T1, Receptor-type tyrosine-protein kinase FLT3 (Homo sapiens), P36888 [K663Q]; assay: (§1) Selectivity interaction (KinomeScan (DiscoverX)) EUB0000595a FLT3
T1 sequence (whole entry): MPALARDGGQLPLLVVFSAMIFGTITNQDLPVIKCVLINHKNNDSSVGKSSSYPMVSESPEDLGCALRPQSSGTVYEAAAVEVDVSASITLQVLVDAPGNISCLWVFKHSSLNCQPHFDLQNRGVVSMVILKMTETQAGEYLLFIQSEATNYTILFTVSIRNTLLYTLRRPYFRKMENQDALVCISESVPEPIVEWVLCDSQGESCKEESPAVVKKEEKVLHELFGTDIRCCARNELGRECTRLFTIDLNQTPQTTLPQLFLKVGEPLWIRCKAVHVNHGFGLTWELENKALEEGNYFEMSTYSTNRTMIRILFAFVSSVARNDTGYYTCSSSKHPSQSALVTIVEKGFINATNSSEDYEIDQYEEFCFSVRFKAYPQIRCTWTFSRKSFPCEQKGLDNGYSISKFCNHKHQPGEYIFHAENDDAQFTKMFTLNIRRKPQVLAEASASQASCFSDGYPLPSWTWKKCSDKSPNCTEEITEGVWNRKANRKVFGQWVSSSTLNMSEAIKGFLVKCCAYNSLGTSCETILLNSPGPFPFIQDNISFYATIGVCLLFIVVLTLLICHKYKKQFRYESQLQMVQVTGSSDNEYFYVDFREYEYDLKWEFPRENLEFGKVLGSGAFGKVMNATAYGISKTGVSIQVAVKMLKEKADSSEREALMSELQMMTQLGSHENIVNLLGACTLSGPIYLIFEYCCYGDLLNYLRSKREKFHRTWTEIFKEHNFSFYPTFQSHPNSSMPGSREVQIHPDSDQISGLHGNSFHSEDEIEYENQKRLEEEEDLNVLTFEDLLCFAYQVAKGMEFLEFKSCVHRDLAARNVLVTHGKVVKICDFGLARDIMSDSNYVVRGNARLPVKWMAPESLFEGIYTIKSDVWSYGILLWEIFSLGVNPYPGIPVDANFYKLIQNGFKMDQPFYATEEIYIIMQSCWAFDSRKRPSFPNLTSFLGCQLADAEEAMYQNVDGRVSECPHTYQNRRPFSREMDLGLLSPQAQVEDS

[2] = tested on: T2, Receptor-type tyrosine-protein kinase FLT3 (Homo sapiens), P36888 [R834Q]; assay: as §1
T2 sequence (whole entry): T1 sequence (whole entry) with Q663K, R834Q

[3] = tested on: Receptor-type tyrosine-protein kinase FLT3 (Homo sapiens), P36888 [UNDEFINED MUTATION]; assay: as §1
[4] = target: T3, Protein kinase C iota type (Homo sapiens) (UniProt P41743); assay: Selectivity interaction (Millipore kinase profiler) EUB0000124b PRKCI
T3 sequence (whole entry): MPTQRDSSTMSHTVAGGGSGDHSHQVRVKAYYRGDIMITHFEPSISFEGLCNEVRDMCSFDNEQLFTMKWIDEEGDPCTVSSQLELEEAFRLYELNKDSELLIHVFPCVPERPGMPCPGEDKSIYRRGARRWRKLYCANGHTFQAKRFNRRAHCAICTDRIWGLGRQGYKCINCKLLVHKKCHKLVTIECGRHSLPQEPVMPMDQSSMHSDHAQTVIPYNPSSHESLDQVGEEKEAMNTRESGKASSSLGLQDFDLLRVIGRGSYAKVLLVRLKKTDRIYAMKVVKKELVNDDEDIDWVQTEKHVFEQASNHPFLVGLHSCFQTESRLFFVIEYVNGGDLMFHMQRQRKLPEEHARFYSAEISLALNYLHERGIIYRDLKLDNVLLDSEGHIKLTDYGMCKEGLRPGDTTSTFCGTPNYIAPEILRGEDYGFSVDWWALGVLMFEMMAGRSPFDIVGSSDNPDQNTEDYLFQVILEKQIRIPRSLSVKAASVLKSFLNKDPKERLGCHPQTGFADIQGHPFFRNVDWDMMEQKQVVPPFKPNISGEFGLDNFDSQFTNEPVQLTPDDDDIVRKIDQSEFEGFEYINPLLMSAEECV

[5] = Selectivity interaction (KinomeScan (DiscoverX)) EUB0000092b PKNB

Question: What does the source list for `COCC(=O)NC/C=C/c1ccc2ncnc(Nc3ccc(Oc4ccc(C)nc4)c(C)c3)c2c1` [CP-724714]?
Answer: % of control [1]: 79%; % of control [2]: 100%; % of control [3]: 87%

Question: Which % of control [4] does the source give for `CC(=O)Nc1cccc(-n2c(=O)n(C3CC3)c(=O)c3c(Nc4ccc(I)cc4F)n(C)c(=O)c(C)c32)c1` here?
Answer: The % of control was 83%.

Question: With `CCC(=O)N1CCN(c2ccc(-n3c(=O)ccc4cnc5ccc(-c6cnc7ccccc7c6)cc5c43)cc2C(F)(F)F)CC1` as the molecule, how does the % of control [5] read?
Answer: The % of control was 64%.
